From patent publication EP3572468B1, “CYANINE DYES AND THEIR USAGE FOR IN VIVO STAINING OF MICROORGANISMS” (PHILIPPS-UNIVERSITÄT MARBURG, priority 2018, dated 2019)

Experiments:
[1] = target: dsDNAhAT (double-stranded DNA hairpin with the consensus sequence ATTA); experiment: Fluorescence titration with hairpin dsDNAhAT, binding affinity by DynaFit; conditions: 1 µM dye in 10 mM Tris pH 7.6 and 50 mM KCI, 20°C, emission at 647 nm, 1:1 binding model, read-out: binding affinity (KD, apparent dissociation constant)
Method: Fluorescence measurements and tritations were performed on a Jasco FP-6500 spectrofluorometer equipped with a Thermo Haake WKL 26 water recirculator at 20°C. Unless otherwise noted, a 1400 µL fluorescence cuvette of HellmaAnalytics (104F-QS) was used and the measurements were performed with the following settings: increment: 1.0 nm; integration time: 0.2 s; speed: 500 nm/min; sensitivity: medium; excitation slit width: 3 nm; emission slit width: 3 nm; excitation wavelength 610 nm. The emission spectra were recorded from 625 to 750 nm at 20°C. From all spectra, the corresponding background signal was substracted. […] Table 1: Binding sites and sequences of DNA hairpins, which were used for fluorescence titrations experiments.
All fluorescence titrations followed the same procedure: to 1 mL of 1 µM solution of corresponding cyanine dye derivative in 10 mM Tris pH 7.6 and 50 mM KCI aliquots of a stock solution of the corresponding annealed DNA (dsDNAhAT and dsDNAhGC = 435 µM; dsDNACT = 0.65 mM) were successively added and the fluorescence spectra were recorded in a range from 625-750 nm after 1 min of each addition. […] The fluorescence emission plotted is the resulting mean of the three independent measurements. […]
All binding affinities were determined by fitting the obtained experimental data in the DynaFit 4.0 software. […]

dsDNACT = experiment: Fluorescence quantum yield with dsDNACT; type: physicochemical, calf; conditions: with dsDNACT (30 eq.); 10 mM Tris pH 7.6 and 50 mM KCI, 25°C; reference dye Alexa Fluor 647
Method: Fluorescence intensity values for the quantum yields were determined on an ISS PC1 spectrofluorometer with an ISS 11650 lamp connected to an ISS Simpson model 109 and an ISS 80011 photomulitplier connected to a MGW Lauda K2R D and an Amherst Scientific Corp. 7600F for cooling. A VWR Refrigerated Circ 1160S was connected for the cooling of the cuvette chamber. It was measured in a 1400 µL fluorescence cuvette of HellmaAnalytics (104F-QS) at 25°C using the following settings: increment: 2.0 nm; integration time: 1.0 s; excitation slit width: 0.25 mm; emission slit width: 0.5 mm; excitation wavelength 590 nm. The emission spectra were recorded from 610 to 750 nm. From all spectra the corresponding background signal was substracted. Absorbance values were measured on a Jasco V-650 UV-Vis Spectrophotometer equipped with a Jasco PAC-743 temperature controlled cell holder and a Julabo F250 cooling system. […] The values for the reference compounds were measured in duplicates, the ones for 6-TramTO-3 with and without dsDNACT in triplicates. The quantum yields of 6-TramTO-3 with (30 eq.) and without dsDNACT were determined in 10 mM Tris pH 7.6 and 50 mM KCI. […]
Table 3: Determined slopes and corresponding quantum yields for the two reference compounds Alexa Flour® 647 and Atto 655 and for 6-TramTO-3 with and without dsDNACT.

[2] = Excitation and emission spectra; type: physicochemical; conditions: aqueous solution; 10 µM in 10 mM Tris pH 7.6 and 50 mM KCI
Method: Fluorescence measurements and tritations were performed on a Jasco FP-6500 spectrofluorometer equipped with a Thermo Haake WKL 26 water recirculator at 20°C. Unless otherwise noted, a 1400 µL fluorescence cuvette of HellmaAnalytics (104F-QS) was used and the measurements were performed with the following settings: increment: 1.0 nm; integration time: 0.2 s; speed: 500 nm/min; sensitivity: medium; excitation slit width: 3 nm; emission slit width: 3 nm; excitation wavelength 610 nm. The emission spectra were recorded from 625 to 750 nm at 20°C. From all spectra, the corresponding background signal was substracted. The used hairpin double-stranded DNAs dsDNAhAT and dsDNAhGC had the sequences depicted in Table. 1. Table 1: Binding sites and sequences of DNA hairpins, which were used for fluorescence titrations experiments.
For each cyanine dye derivative: 6-AzTO-3, 6-TramTO-3 and 6-NH2TO-3, the excitation and emission spectra of a 10 µM solution of the corresponding compound in 1 mL of 10 mM Tris pH 7.6 and 50 mM KCI were measured. The excitation spectra were recorded at an emission of 670 nm in a rage from 500 - 660 nm (slit 5/10 nm), while the emission spectra were measured at an excitation of 590 nm in a range from 600 - 750 nm (slit 5/10 nm). (cf. Fig. 13)

For `CC[n+]1ccc(/C=C/C=C2\Sc3ccccc3N2CCCCCCn2cc(CN)nn2)c2ccccc21.[I-]` [6-TramTO-3, 4-((1E,3Z)-3-(3-(6-(4-(aminomethyl)-1H-1,2,3-triazol-1-yl)hexyl)benzo[d]thiazol-2(3H)-ylidene)prop-1-en-1-yl)-1-ethylquinolin-1-ium iodide], the Kd [1] was 114 ± 30 nM, the “quantum yield (ΦF)” value (dsDNACT) was 0.27 and the “long wavelength maximum of emission” value [2] was 645 nm. The “long wavelength maximum of excitation” value [2] was 633 nm.
